Assay results published in US20170368082A1, “FORMULATIONS OF BRINCIDOFOVIR” (priority 2016, published 2017).
Where two headings read alike, the source gives them in different places.

Assay: 28-day study toxicokinetics of brincidofovir and CDV in plasma
Format: in vivo, Sprague-Dawley CD rats
Conditions: plasma brincidofovir; for AUC(0-t) / Cmax: iv
Experimental: Blood samples were obtained for the determination of plasma concentrations of brincidofovir and the brincidofovir metabolite, cidofovir.
Approximately 0.40 mL of whole blood was obtained via the tail vein from each animal at each time point. Animals were not fasted prior to blood collection. Blood was collected into tubes containing K2EDTA anticoagulant and placed on wet ice in an upright position. Plasma was separated by centrifugation (for 10 minutes at approximately 2000 g, at approximately 2-8° C.). Approximately 0.150 mL of plasma was transferred into a single cryotube appropriately labeled as to study number, animal number, time point, date of sampling and sample type. Remaining plasma was transferred into a second cryotube and retained as a backup sample. Plasma was obtained and frozen at approximately −80±10° C. within approximately 2 hours after collection of each blood sample until analysis. Animals were euthanized (CO2 inhalation) after the final blood collection.
Bioanalytical samples were analyzed using a validated liquid chromatographic-triple quadruple mass spectrometric (LC-MS/MS) assay at Pyxant Labs.
Upon receipt of the plasma concentration data, noncompartmental toxicokinetic analysis was performed by Nuventra, Inc. Durham, N.C.

[1] = both sexes, Sprague-Dawley CD, rat, in vivo, 4 mg/kg, Day 1, 4 mg/kg, combined male and female, Mean
[2] = both sexes, Sprague-Dawley CD, rat, in vivo, 4 mg/kg, Day 1, 4 mg/kg, combined male and female, Median
[3] = both sexes, Sprague-Dawley CD, rat, in vivo, 15 mg/kg, Day 1, 15 mg/kg, combined male and female, Mean
[4] = both sexes, Sprague-Dawley CD, rat, in vivo, 15 mg/kg, Day 1, 15 mg/kg, combined male and female, Median
[5] = Day 29, 1 mg/kg, combined male and female rats, mean
[6] = Day 29, 4 mg/kg, combined male and female rats, mean
[7] = Day 29, 15 mg/kg, combined male and female rats, mean
[8] = Day 1, 1 mg/kg, combined male and female, Median
[9] = Day 1, 4 mg/kg, combined male and female, Mean
[10] = Day 1, 4 mg/kg, combined male and female, Median
[11] = Day 1, 15 mg/kg, combined male and female, Mean
[12] = Day 1, 15 mg/kg, combined male and female, Median

CCCCCCCCCCCCCCCCOCCCOP(=O)(O)CO[C@H](CO)Cn1ccc(N)nc1=O [Brincidofovir]
concentration at 2 h (both sexes, Sprague-Dawley CD, rat, in vivo, 1 mg/kg, Day 1, 1 mg/kg, combined male and female, Mean, read-out: Clast): 209 ng/mL | concentration at 8 hr (both sexes, Sprague-Dawley CD, rat, in vivo, 4 mg/kg, Day 29, 4 mg/kg, combined male and female rats, mean, read-out: Clast): 2.06 ng/mL | concentration at 8 h (both sexes, Sprague-Dawley CD, rat, in vivo, 4 mg/kg, Day 1, 4 mg/kg, combined male and female, Mean, read-out: Clast): 2.2 ng/mL | concentration at 8 h (both sexes, Sprague-Dawley CD, rat, in vivo, 4 mg/kg, Day 1, 4 mg/kg, combined male and female, Median, read-out: Clast): 2.31 ng/mL | concentration at 8 hr (both sexes, Sprague-Dawley CD, rat, in vivo, 15 mg/kg, Day 29, 15 mg/kg, combined male and female rats, mean, read-out: Clast): 10.9 ng/mL | concentration at 8 h (both sexes, Sprague-Dawley CD, rat, in vivo, 15 mg/kg, Day 1, 15 mg/kg, combined male and female, Mean, read-out: Clast): 9.68 ng/mL | concentration at 8 h (both sexes, Sprague-Dawley CD, rat, in vivo, 15 mg/kg, Day 1, 15 mg/kg, combined male and female, Median, read-out: Clast): 10.3 ng/mL | AUC(0-t) (both sexes, Sprague-Dawley CD, rat, in vivo, 1 mg/kg, Day 29, 1 mg/kg, combined male and female rats, mean, calculated using only 2 quantifiable data points): 410 ng·h/mL | Cmax (both sexes, Sprague-Dawley CD, rat, in vivo, 1 mg/kg, Day 1, 1 mg/kg, combined male and female, Mean): 219 ng/mL | AUC(0-t) (both sexes, Sprague-Dawley CD, rat, in vivo, 1 mg/kg, Day 1, 1 mg/kg, combined male and female, Mean, only 2 quantifiable data points): 319 ng·h/mL | Cmax (both sexes, Sprague-Dawley CD, rat, in vivo, 1 mg/kg, Day 1, 1 mg/kg, combined male and female, Median): 210 ng/mL | AUC(0-t) (both sexes, Sprague-Dawley CD, rat, in vivo, 1 mg/kg, Day 1, 1 mg/kg, combined male and female, Median, only 2 quantifiable data points): 305 ng·h/mL | AUC(0-t) (both sexes, Sprague-Dawley CD, rat, in vivo, 4 mg/kg, Day 29, 4 mg/kg, combined male and female rats, mean): 2760 ng·h/mL | AUC(0-t) [1]: 2220 ng·h/mL | Cmax [1]: 1010 ng/mL | AUC(0-t) [2]: 2320 ng·h/mL | Cmax [2]: 1000 ng/mL | AUC(0-t) (both sexes, Sprague-Dawley CD, rat, in vivo, 15 mg/kg, Day 29, 15 mg/kg, combined male and female rats, mean): 9890 ng·h/mL | AUC(0-t) [3]: 8820 ng·h/mL | Cmax [3]: 3800 ng/mL | AUC(0-t) [4]: 8780 ng·h/mL | Cmax [4]: 3760 ng/mL | AUClast/Dose [5]: 410 (hr*ng/mL)/(mg/kg) | Cmax/Dose [5]: 298 kg·ng/mL/mg | Tlast (Day 29, 1 mg/kg, combined male and female rats, median): 2.00 h | AUClast/Dose [6]: 690 (hr*ng/mL)/(mg/kg) | Cmax/Dose [6]: 301 kg·ng/mL/mg | Tlast (Day 29, 4 mg/kg, combined male and female rats, median): 8.00 h | AUClast/Dose [7]: 660 (hr*ng/mL)/(mg/kg) | Cmax/Dose [7]: 300 kg·ng/mL/mg | Tlast (Day 29, 15 mg/kg, combined male and female rats, median): 8.00 h | Cmax/Dose (Day 1, 1 mg/kg, combined male and female, Mean): 219 kg·ng/mL/mg | AUClast/Dose (Day 1, 1 mg/kg, combined male and female, Mean, only 2 quantifiable data points): 319 (hr*ng/mL)/(mg/kg) | Clast [8]: 206 ng/mL | Cmax/Dose [8]: 210 kg·ng/mL/mg | Tlast [8]: 2.00 h | AUClast/Dose (Day 1, 1 mg/kg, combined male and female, Median, only 2 quantifiable data points): 305 (hr*ng/mL)/(mg/kg) | AUClast/Dose [9]: 554 (hr*ng/mL)/(mg/kg) | Cmax/Dose [9]: 252 kg·ng/mL/mg | AUClast/Dose [10]: 579 (hr*ng/mL)/(mg/kg) | Cmax/Dose [10]: 250 kg·ng/mL/mg | Tlast [10]: 8.00 h | AUClast/Dose [11]: 588 (hr*ng/mL)/(mg/kg) | Cmax/Dose [11]: 254 kg·ng/mL/mg | AUClast/Dose [12]: 585 (hr*ng/mL)/(mg/kg) | Cmax/Dose [12]: 251 kg·ng/mL/mg | Tlast [12]: 8.00 h
